Assays:
eGFP-53BP1 = eGFP-53BP1 (Homo sapiens, UniProt Q12888); experiment: eGFP-53BP1 foci count per nucleus by confocal microscopy, DIvA cells; assay type: cell-based
[1] = target: 53BP1 TTD (tandem tudor domain) (Homo sapiens, UniProt Q12888); experiment: SPR, OneStep gradient injections, kinetic fit with mass transport; assay type: binding
Chain of 53BP1 TTD (tandem tudor domain) (Q12888 1483-1606): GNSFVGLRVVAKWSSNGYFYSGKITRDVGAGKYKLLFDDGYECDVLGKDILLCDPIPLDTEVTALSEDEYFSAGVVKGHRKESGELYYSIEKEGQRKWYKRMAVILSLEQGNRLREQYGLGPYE

Chain of eGFP-53BP1 (Q12888 whole entry, the tested form may be a part): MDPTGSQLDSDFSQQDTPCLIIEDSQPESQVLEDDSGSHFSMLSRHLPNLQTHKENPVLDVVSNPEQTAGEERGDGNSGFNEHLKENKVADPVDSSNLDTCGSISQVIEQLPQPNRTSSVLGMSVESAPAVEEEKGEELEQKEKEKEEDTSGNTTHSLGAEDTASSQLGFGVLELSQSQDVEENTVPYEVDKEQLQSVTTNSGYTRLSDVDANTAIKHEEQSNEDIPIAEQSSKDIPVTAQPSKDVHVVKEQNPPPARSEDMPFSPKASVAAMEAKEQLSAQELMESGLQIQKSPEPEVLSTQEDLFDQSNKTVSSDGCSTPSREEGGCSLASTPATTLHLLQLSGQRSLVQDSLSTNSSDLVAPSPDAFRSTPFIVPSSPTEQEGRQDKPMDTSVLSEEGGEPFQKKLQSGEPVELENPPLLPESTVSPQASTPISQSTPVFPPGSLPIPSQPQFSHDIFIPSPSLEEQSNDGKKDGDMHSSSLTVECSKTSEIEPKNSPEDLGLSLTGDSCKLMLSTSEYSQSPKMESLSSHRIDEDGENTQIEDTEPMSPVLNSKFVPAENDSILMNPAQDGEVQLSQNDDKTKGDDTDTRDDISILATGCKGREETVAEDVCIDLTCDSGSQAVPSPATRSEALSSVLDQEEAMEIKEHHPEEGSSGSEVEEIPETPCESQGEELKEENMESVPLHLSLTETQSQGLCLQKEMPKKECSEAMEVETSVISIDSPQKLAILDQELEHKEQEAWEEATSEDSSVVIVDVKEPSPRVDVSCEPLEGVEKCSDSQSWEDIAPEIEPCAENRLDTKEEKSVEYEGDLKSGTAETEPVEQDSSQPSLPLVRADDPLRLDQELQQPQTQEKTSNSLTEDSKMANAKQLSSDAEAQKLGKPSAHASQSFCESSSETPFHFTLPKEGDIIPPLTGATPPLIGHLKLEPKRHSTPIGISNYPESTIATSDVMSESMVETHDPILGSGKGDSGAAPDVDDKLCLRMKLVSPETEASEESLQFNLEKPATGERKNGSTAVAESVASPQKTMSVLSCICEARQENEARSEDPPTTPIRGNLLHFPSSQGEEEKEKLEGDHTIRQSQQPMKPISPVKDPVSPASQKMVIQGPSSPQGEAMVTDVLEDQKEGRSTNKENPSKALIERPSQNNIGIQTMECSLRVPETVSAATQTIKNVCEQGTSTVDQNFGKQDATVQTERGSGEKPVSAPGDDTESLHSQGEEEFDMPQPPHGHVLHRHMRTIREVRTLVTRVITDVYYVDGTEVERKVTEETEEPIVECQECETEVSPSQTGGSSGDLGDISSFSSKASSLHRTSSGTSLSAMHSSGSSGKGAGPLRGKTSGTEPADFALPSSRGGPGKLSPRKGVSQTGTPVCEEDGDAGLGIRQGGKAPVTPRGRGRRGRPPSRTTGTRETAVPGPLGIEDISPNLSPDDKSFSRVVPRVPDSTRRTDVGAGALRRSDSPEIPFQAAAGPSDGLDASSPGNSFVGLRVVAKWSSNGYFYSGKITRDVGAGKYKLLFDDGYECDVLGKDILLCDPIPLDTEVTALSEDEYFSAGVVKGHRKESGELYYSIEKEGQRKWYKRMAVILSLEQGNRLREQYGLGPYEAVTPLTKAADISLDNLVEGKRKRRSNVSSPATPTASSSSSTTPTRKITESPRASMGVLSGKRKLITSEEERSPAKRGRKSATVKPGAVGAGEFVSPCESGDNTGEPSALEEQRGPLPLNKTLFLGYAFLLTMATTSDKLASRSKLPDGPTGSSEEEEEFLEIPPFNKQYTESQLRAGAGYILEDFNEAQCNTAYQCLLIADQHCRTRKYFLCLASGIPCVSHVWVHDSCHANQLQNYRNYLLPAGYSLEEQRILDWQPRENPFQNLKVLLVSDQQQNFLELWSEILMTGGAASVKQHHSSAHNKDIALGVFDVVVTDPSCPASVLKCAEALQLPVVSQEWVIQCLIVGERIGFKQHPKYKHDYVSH

IC50 (eGFP-53BP1): 13 ± 5 µM | Kd [1]: 14 µM
SMILES: CCN1CCN(C(=O)c2ccc(Cn3nc(C)cc3C)cc2)CC1 [EoHR, (4-((3,5-dimethyl-1H-pyrazol-1-yl)methyl)phenyl)(4-ethylpiperazin-1-yl)methanone]
